Data: PMC5703966, “Systemic clearance and brain distribution of carbazole-based cyanine compounds as Alzheimer’s disease drug candidates” (Scientific Reports, 2017)
Read-outs that look alike come from different tables or passages of the source.

Assays:
[1] = Liver microsomes stability with UDPGA and alamethacin (glucuronidation); assay type: in vitro ADME; conditions: 0.5 mg/mL microsomes protein, read-out: t 1/2 in liver microsomes with UDPGA and alamethacin
Text: Microsomes and hepatocytes stability procedures and their parameters (the apparent intrinsic clearance (Cl int,app), unbound apparent intrinsic clearance (Cl u, int,app), scaled intrinsic clearance (Cl int,scaled), unbound scaled intrinsic clearance (Cl u, int,scaled), and Cl hep) calculation methods were shown in supplemental information (Supplemental Methods). The metabolites identification methods including LC-MS conditions was also found in supplemental information (Supplemental Methods). Several marker compounds as quality control were assayed (Table S6).
MS/MS. Natural logarithm of peak area ratios (compound peak area normalized by IS peak area) were plotted against time and half-life calculated. […]
In vitro stability in liver microsomes and hepatocytes
Half-life (t1/2) of SLM or SLOH in liver microsomes was determined in duplicate. In phase I reaction, the compound (1 μM) was incubated with liver microsomes (0.5 mg/mL) in 100 mM sodium phosphate buffer (pH 7.4) including 81 mM Na2HPO4 and 19 mM NaH2PO4 ) at 37 °C, the reaction mixture was prewarmed at 37 °C for 2 minutes before adding NADPH (1.0 mM). In phase II reaction, the compound (1 μM) was incubated with liver microsomes (0.5 mg/mL) in 100 mM Tris-HCl buffer (pH 7.4) containing 5 mM MgCl2, 10 μg/mL alamethicin, and 2% (w/v) BSA. After pre-incubated on ice for 15 min, the reactions were initiated with the addition of UDPGA (5.0 mM). Aliquots of the reaction mixture at 0, 5, 10, 15, 30 or 45 minutes were added to 4 folds acetonitrile (ACN) containing internal standard (IS), and the samples were centrifuged at 9,659 g for 5 mins before LC-MS/MS analysis of substrate […]
disappearance. […]
Hepatocytes were suspended at 0.5 × 10^6 viable cells/mL of HT Medium and prewarmed at 37 °C for 10 minutes. Incubations were initiated with the addition of SLM and SLOH (final concentration=1 μM) and were conducted at 37 °C, 75% relative humidity, and 5% CO2. The reaction was stopped at 0, 5, 15, 30, 60, 90, 120 minutes by the addition of 4 folds ACN containing berberine chloride as internal standard

[2] = test system: mouse hepatocytes; assay: Hepatocyte stability; assay type: in vitro ADME; conditions: well-stirred model
[3] = test system: WT and 3 × Tg-AD mice; assay: Systemic clearance and brain distribution in WT and 3 × Tg-AD mice (8 months); assay type: in vivo, mouse; conditions: for K in: 1 mg/kg i.v.; for K puu,brain in AD mice relative to WT mice: higher in AD mice
Protocol: (§1) The transgenic (Tg) AD mice (B6; 129-Psen1 ^tm1Mpm Tg (APPSwe, tauP301L) 1Lfa/Mmjax) and the corresponding wild-type (WT) (B6129SF2/J) mice was obtained from the Jackson Laboratory (Bar Harbor, Maine, USA), and maintained by the Animal Facility of Faculty of Health Sciences in University of Macau. Either 27 WT or AD mice (8 months) were randomly separated into 9 groups with 3 mice at each time point. Blood and brain were collected at time points 0.083, 0.167, 0.25, 0.5, 1, 2, 4, 8 and 16 hours after i.v. dosing (1 mg/kg). Mice were euthanized by isoflurane followed by cervical dislocation. All the plasma, urine, bile and brain samples were stored at −70 °C for subsequent analysis. The analytical methods for systemic and brain PK parameters were shown in supplemental information (Supplemental Methods).
(§2) Parameters in animals were determined using non-compartmental analysis. […] Systemic Cl p was calculated as the i.v. dose divided by AUC0−∞ ^iv. The terminal rate constant (K el) was calculated by a linear regression of the log-linear concentration-time curve, and the terminal elimination t 1/2 was calculated as 0.693 divided by K el. Mean residence time from t = 0 to infinity (MRT 0−∞) was calculated as AUMC 0−∞ divided by AUC 0−∞. Apparent steady-state distribution volume (Vd ss) was determined as Cl p multiplied by MRT 0−∞. […] The Cl bile was derived as the amount of (in milligrams) of SLM or SLOH in the bile over the 24-hour interval postdose/AUC0-24h. The influx clearance into brain (K in) was calculated by using the amount of drug in the brain (homogenate) at time t (A, brain (t)) (corrected for the amount of drug remaining in the cerebral vasculature) divided by plasma exposure up to this time point (AUC, plasma (0 − t)). The C u,brain was calculated by A brain (homogenate, ng/g brain) divided by V u,brain (mL/g brain). The unbound ISF to plasma ratio (K puu,brain) was calculated by unbound AUC 0−t of ISF (ng/mL × min) divided by unbound AUC 0–t (ng/mL × min) of plasma.

[4] = as above; assay type: in vivo, mouse; conditions: mouse; for Kp: brain interstitial fluid (unbound) versus plasma (unbound), read-out: K puu,brain; for clearance / Vd / half-life / MRT inf: plasma; for Vd: read-out: Vdss; for MRT inf: read-out: MRT 0−∞
Protocol: as §1, §2

[5] = 3×Tg-AD (B6;129-Psen1tm1Mpm Tg(APPSwe,tauP301L)1Lfa/Mmjax), iv, 1 mg/kg, AD mice 8 months, 1 mg/kg i.v.
[6] = 3×Tg-AD (B6;129-Psen1tm1Mpm Tg(APPSwe,tauP301L)1Lfa/Mmjax), iv, AD mice 8 months, 1 mg/kg i.v., read-out: Cl p (converted)
[7] = 3×Tg-AD (B6;129-Psen1tm1Mpm Tg(APPSwe,tauP301L)1Lfa/Mmjax), iv, AD mice 8 months, 1 mg/kg i.v.
[8] = B6129SF2/J (WT) and 3×Tg-AD, intravenous, 1 mg/kg, WT and AD mice (8 months), no significant difference, read-out: plasma clearance (converted)
[9] = B6129SF2/J (wild-type), iv, 1 mg/kg, WT mice 8 months, 1 mg/kg i.v.
[10] = B6129SF2/J (wild-type), iv, WT mice 8 months, 1 mg/kg i.v.
[11] = B6129SF2/J (wild-type), iv, WT mice 8 months, 1 mg/kg i.v., read-out: Cl p (converted)
[12] = iv, AD mice 8 months, 1 mg/kg i.v.

Question: With `COCCOCCn1c2ccccc2c2cc(/C=C/c3cc[n+](C)c4ccccc34)ccc21.[I-]` [SLM, (E)-4-(2-(9-(2-(2-methoxyethoxy)ethyl)-9H-carbazol-3-yl)-vinyl)-1-methyl-quinolin-1-iumiodide] as the compound, how does the half-life at 1 μM ([1]; ICR/CD-1, mouse, pH 7.4, mice) read?
Answer: > 8.33 h

Question: What about the half-life at 1 μM ([1]; pH 7.4, human) of the same compound?
Answer: > 8.33 h

Question: And the “Hepatocyte scaled Cl hep” value [2]?
Answer: 8.67 ± 1.67 mL/min/kg

Question: And the “K in” value ([3]; AD mice 8 months)?
Answer: 4.10 ± 1.10 μL/min per g brain

Question: And the “K in” value ([3]; WT mice 8 months)?
Answer: 1.70 ± 0.630 μL/min per g brain

Question: What about the “K puu,brain in AD mice relative to WT mice” value [3] of the same compound?
Answer: 4 fold

Question: And the Kp [4, 5]?
Answer: 11

Question: What about the clearance [4, 6] of the same compound?
Answer: 13.2 mL/min/kg

Question: What about the Vd [4, 7] of the same compound?
Answer: 1.3 ± 0.32 L/kg

Question: What about the clearance [4, 8] of the same compound?
Answer: ~11.7 mL/min/kg

Question: And the Kp [4, 9]?
Answer: 2.5 ± 0.44

Question: What about the half-life [4, 10] of the same compound?
Answer: 6 ± 1 h

Question: What about the clearance [4, 11] of the same compound?
Answer: 11.3 mL/min/kg

Question: What about the MRT inf [4, 10] of the same compound?
Answer: 1.5 ± 0.18 h

Question: What about the Vd [4, 10] of the same compound?
Answer: 1.3 ± 0.58 L/kg

Question: And the half-life [4, 12]?
Answer: 3.5 ± 1 h

Question: What about the MRT inf [4, 12] of the same compound?
Answer: 1.7 ± 0.55 h

Question: Which results are given for `COCCOCCn1c2ccccc2c2cc(/C=C/c3cc[n+](CCO)c4ccccc34)ccc21` [SLOH, (E)-1-(2-hydroxyethyl)-4-(2-(9-(2-(2-metho-xyethoxy)-ethyl)-9H-carbazol-3-yl)vinyl) quinolin-1-ium chloride]?
Answer: half-life at 1 μM ([1]; ICR/CD-1, mouse, pH 7.4, mice): > 8.33 h; half-life at 1 μM ([1]; pH 7.4, human): > 8.33 h; Hepatocyte scaled Cl hep [2]: 9.67 ± 1.67 mL/min/kg; K in ([3]; AD mice 8 months): 4.00 ± 0.500 μL/min per g brain; K in ([3]; WT mice 8 months): 1.10 ± 0.100 μL/min per g brain; K puu,brain in AD mice relative to WT mice [3]: 8 fold; Kp [4, 5]: 8.1; clearance [4, 6]: 10 mL/min/kg; Vd [4, 7]: 2.3 ± 0.71 L/kg; clearance [4, 8]: ~10 mL/min/kg; Kp [4, 9]: 0.98 ± 0.22; half-life [4, 10]: 4.3 ± 1.1 h; clearance [4, 11]: 7.5 mL/min/kg; MRT inf [4, 10]: 3 ± 1.2 h; Vd [4, 10]: 2.1 ± 0.45 L/kg; half-life [4, 12]: 4.8 ± 1.2 h; MRT inf [4, 12]: 2.9 ± 0.38 h
